From article PMC9416111, “Synthesis and Biological Activity of Unsymmetrical Monoterpenylhetaryl Disulfides” (Molecules, 2022)
Converted amounts (≈) assume the structure as drawn.

Columns and labels:
[1] = system: S. aureus ATCC 29213 (MSSA); experiment: Antibacterial MIC, broth microdilution (EUCAST); format: cell-based, Staphylococcus aureus; conditions: for MIC: Staphylococcus aureus
Description: (§1) Minimum inhibitory concentrations (MICs) of compounds was determined by the broth microdilution assay in 96-well plates (Eppendorf, Hamburg, Germany) according to the EUCAST rules for antimicrobial susceptibility testing in full Mueller-Hinton broth (MH). The concentrations of compounds to be tested ranged from 1 to 2048 µg/mL. The MIC was determined as the lowest concentration of an antibiotic for which no visible bacterial growth could be observed after 24 h of incubation.

[2] = system: S. aureus MRSA clinical isolate; experiment: Antibacterial MIC, broth microdilution (EUCAST); format: cell-based, Staphylococcus aureus; conditions: for MIC: Staphylococcus aureus, MRSA, 24 h, Mueller-Hinton broth
Description: as §1

[3] = system: P. aeruginosa ATCC 27853; experiment: Antibacterial MIC, broth microdilution (EUCAST); format: cell-based, Pseudomonas aeruginosa; conditions: for MIC: Pseudomonas aeruginosa, ATCC27853, 24 h, Mueller-Hinton broth
Description: as §1

[4] = system: influenza virus A/Puerto Rico/8/34 (H1N1); experiment: Antiviral cell protection assay in MDCK cells; format: cell-based; conditions: H1N1, MDCK, 72 h
[5] = in vitro; conditions: dog
[6] = Cytotoxicity, MTT on EBL cells; conditions: bovine, EBL cells (embryonic bovine lung)
Description: (§3) Cytotoxicity of compounds was determined using the microtetrazolium test (MTT) on EBL cells. The cells were cultured in DMEM—Dulbecco’s Modified Eagle’s Medium (Sigma Aldrich, St. Louis, MO, USA) supplemented with 10% FBS, 2 mM L-glutamine, 100 µg/mL penicillin and 100 µg/mL streptomycin. Cells were seeded in 96-well plates with the density of 3000 cells per well and left overnight to allow for the attachment. Cells were next cultured at 37 °C and 5% CO2 in the presence of compounds of interest at various concentrations from 1.25 to 160 µg/mL. After 24 h of cultivation the cells were subjected to MTT-assay. The formazan was solubilized by DMSO and the optical density was measured on Tecan Infinite 200Pro at 570 nm. The concentration required to inhibit cellular dehydrogenase activity by 50% (CC50 value) was calculated by using GraphPad Prism 6.0 software (GraphPad software, San Diego, CA, USA).

[7] = system: Candida albicans 703 clinical isolate; experiment: Antifungal MIC, broth microdilution (CLSI M27-A3); conditions: for MIC: Candida albicans, 24 h, read-out: MIC C. albicans 703 Clinical Isolate
[8] = system: red blood cells from laboratory mice; experiment: Erythrotoxicity (hemolytic activity); format: cell-based; conditions: 100 μM, 1, 3 and 5 h of incubation
Description: No significant hemolytic activity was detected at a concentration of 1 μM (Figure 3B).
(§2) To evaluate the erythrotoxicity, antioxidant and membrane-protective activity of the compounds, we used 0.5% (v/v) suspension of red blood cells from laboratory mice in phosphate-buffered saline (PBS, pH 7.4). The test substances were previously dissolved in ethanol. Erythrotoxicity (hemolytic activity) was evaluated by the degree of hemolysis of red blood cells 1–5 h after the introduction of solutions of the compounds. Membrane-protective and antioxidant activity was determined by the degree of inhibition of H2O2-induced hemolysis. For this purpose, 30 min after the erythrocyte suspension was added to the solutions of the test compounds, hemolysis was initiated with a solution of hydrogen peroxide (0.006%). Then, the reaction mixture was incubated in a thermostatic shaker Biosan ES-20 with slow stirring at 37 °C for 5 h. An aliquot was taken from the incubation medium every hour, centrifuged for 5 min (1600× g), and the degree of hemolysis was determined by the hemoglobin content in the supernatant on a ThermoSpectromic Genesys 20 spectrophotometer (Thermo Fisher Scientific, Waltham, MA, USA) at 524 nm. The percentage of hemolysis was calculated in relation to the complete hemolysis of the sample. Each experiment was designed with 4–8 replicates. Statistical data processing and charting were performed using the Microsoft Office Excel 2007 software package (Microsoft, Redmond, WA, USA). The data represent the mean ± SE.
Figure 3 Hemolytic activity of unsymmetrical disulfides at the concentration of 100 μM (A) and 1 μM (B) after 1, 3 and 5 h of incubation.

[9] = system: red blood cells from laboratory mice; experiment: Membrane-protective activity: H2O2-induced hemolysis of erythrocytes; format: cell-based; conditions: 1 μM, 1–5 h
Description: The membrane-protective properties of the compounds were evaluated in the model of oxidative hemolysis of erythrocytes at a concentration of 1 μM in order to avoid the effect of hemolytic activity.
as §2
Figure 4 Effect of unsymmetrical disulfides and Trolox (T) at a concentration of 1 μM on the level of H2O2-induced hemolysis of erythrocytes after 1–5 h of incubation.

[10] = system: EBL cells (embryonic bovine lung); experiment: Cytotoxicity, MTT on EBL cells
Description: as §3

SMILES | MIC ([1]; 24 h, Mueller-Hinton broth) | MIC [2] | MIC [3] | IC50 [4] | melting point | CC50 [5] | CC50 at 24 h [6] | MIC [7] | activity against P. aeruginosa ATCC 27853, in words [3] | hemolytic activity (erythrotoxicity), in words [8] | membrane-protective activity, in words [9] | cytotoxicity on EBL cells, in words [10] | antibacterial activity against MSSA, in words [1] | antibacterial activity against MRSA, in words [2] | MIC S. aureus ATCC 29213 (MSSA) ([1]; 24 h, Mueller-Hinton broth) | antifungal activity against Candida albicans 703, in words [7]
NCC[C@H](O)C(=O)N[C@@H]1C[C@H](N)[C@@H](O[C@H]2O[C@H](CN)[C@@H](O)[C@H](O)[C@H]2O)[C@H](O)[C@H]1O[C@H]1O[C@H](CO)[C@@H](O)[C@H](N)[C@H]1O [Amikacin, reference compound] | 4 µg/mL (≈ 6.83 µM) | 4 µg/mL (≈ 6.83 µM) | 4 µg/mL (≈ 6.83 µM) | – | – | – | – | – | – | – | – | – | – | – | – | –
COC(=O)c1cccnc1SS[C@H]1C[C@H](C)CC[C@H]1C(C)C [Compound 1c, Methyl 2-(((1S,2S,5R)-2-isopropyl-5-methylcyclohexyl)disulfanyl)pyridine-3-carboxylate] | 32 µg/mL (≈ 94.2 µM) | 32 µg/mL (≈ 94.2 µM) | 32 µg/mL (≈ 94.2 µM) | 12 ± 2 µM | 96 °C | 31 ± 2 µM | 18.3 µg/mL (≈ 53.9 µM) | 512 µg/mL (≈ 1510 µM) | – | – | – | – | – | – | – | –
CC(C)[C@@H]1CC[C@@H](C)C[C@@H]1SSc1ncccc1C(=O)O [Compound 1d, 2-(((1S,2S,5R)-2-isopropyl-5-methylcyclohexyl)disulfanyl)nicotinic acid] | 32 µg/mL (≈ 98.3 µM) | 64 µg/mL (≈ 197 µM) | 1020 µg/mL (≈ 3150 µM) | > 34 µM | 160 to 161 °C (dec.) | 38 ± 3 µM | 47.8 µg/mL (≈ 147 µM) | 64 µg/mL (≈ 197 µM) | – | – | – | – | – | – | – | –
CC1(C)[C@H]2CC[C@@H](CSSc3nc4ccccc4s3)[C@@H]1C2 [Compound 2a, 2-((((1S,2R,5S)-6,6-dimethylbicyclo [3.1.1]heptan-2-yl)methyl)disulfaneyl)benzo[d]thiazole] | 128 µg/mL (≈ 381 µM) | 128 µg/mL (≈ 381 µM) | 64 µg/mL (≈ 191 µM) | 13 ± 3 µM | – | 99 ± 5 µM | 104 µg/mL (≈ 311 µM) | 1020 µg/mL (≈ 3050 µM) | repressed the growth | Low hemolytic activity | most active | least toxicity | – | – | – | –
Cc1cc(C)nc(SSC[C@@H]2CC[C@H]3C[C@@H]2C3(C)C)n1 [Compound 2b, 2-((((1S,2R,5S)-6,6-dimethylbicyclo[3.1.1]heptan-2-yl)methyl)disulfanyl)-4,6-dimethylpyrimidine] | 16 µg/mL (≈ 51.9 µM) | 64 µg/mL (≈ 207 µM) | 32 µg/mL (≈ 104 µM) | 13 ± 2 µM | – | 35 ± 3 µM | 13.6 µg/mL (≈ 44.1 µM) | > 1020 µg/mL | repressed the growth | – | most active | – | – | – | – | –
COC(=O)c1cccnc1SSC[C@@H]1CC[C@H]2C[C@@H]1C2(C)C [Compound 2c, Methyl 2-((((1S,2R,5S)-6,6-dimethylbicyclo[3.1.1]heptan-2-yl)methyl)disulfaneyl)pyridine-3-carboxylate] | > 1020 µg/mL | 64 µg/mL (≈ 190 µM) | 1020 µg/mL (≈ 3030 µM) | 19 ± 3 µM | – | 104 ± 8 µM | 123 µg/mL (≈ 363 µM) | 1020 µg/mL (≈ 3030 µM) | – | – | most active | least toxicity | inactive | showing activity | – | –
CC1(C)[C@H]2CC[C@@H](CSSc3ncccc3C(=O)O)[C@@H]1C2 [Compound 2d, 2-((((1S,2R,5S)-6,6-dimethylbicyclo[3.1.1]heptan-2-yl)methyl)disulfanyl)nicotinic acid] | 16 µg/mL (≈ 49.5 µM) | 512 µg/mL (≈ 1580 µM) | 1020 µg/mL (≈ 3170 µM) | 5 ± 1 µM | – | 60 ± 4 µM | 18.1 µg/mL (≈ 56 µM) | 128 µg/mL (≈ 396 µM) | – | – | – | – | – | – | 32 µg/mL (≈ 98.9 µM) | –
CC1(C)[C@H]2C[C@H](SSc3nc4ccccc4s3)[C@@H](CO)[C@@H]1C2 [Compound 3a, ((1S,2R,3S,5R)-3-(benzo[d]thiazol-2-yldisulfanyl)-6,6-dimethylbicyclo[3.1.1]heptan-2-yl)methanol] | 32 µg/mL (≈ 91 µM) | 32 µg/mL (≈ 91 µM) | 64 µg/mL (≈ 182 µM) | 9 ± 3 µM | – | 30 ± 3 µM | 7.1 µg/mL (≈ 20.2 µM) | 1020 µg/mL (≈ 2910 µM) | repressed the growth | – | – | – | – | – | – | –
Cc1cc(C)nc(SS[C@H]2C[C@H]3C[C@@H]([C@@H]2CO)C3(C)C)n1 [Compound 3b, ((1S,2R,3S,5R)-3-((4,6-dimethylpyrimidin-2-yl)disulfanyl)-6,6-dimethylbicyclo[3.1.1]heptan-2-yl)methanol] | 32 µg/mL (≈ 98.6 µM) | 32 µg/mL (≈ 98.6 µM) | 1020 µg/mL (≈ 3160 µM) | 16 ± 3 µM | – | 83 ± 4 µM | 8.2 µg/mL (≈ 25.3 µM) | 512 µg/mL (≈ 1580 µM) | – | – | most active | – | – | – | – | –
CC1(C)[C@H]2C[C@H](SSc3ncccc3C(=O)O)[C@@H](CO)[C@@H]1C2 [Compound 3d, 2-(((1S,2R,3S,5R)-2-(hydroxymethyl)-6,6-dimethylbicyclo[3.1.1]heptan-3-yl)disulfanyl)nicotinic acid] | 512 µg/mL (≈ 1510 µM) | 1020 µg/mL (≈ 3020 µM) | 1020 µg/mL (≈ 3020 µM) | 132 ± 16 µM | 99 °C | 285 ± 14 µM | 118 µg/mL (≈ 347 µM) | 32 µg/mL (≈ 94.3 µM) | – | Low hemolytic activity | – | least toxicity | – | – | – | active against yeast
CC1(C)[C@H]2C[C@H](O)[C@@H](CSSc3nc4ccccc4s3)[C@@H]1C2 [Compound 4a, (1S,2S,3S,5R)-2-((benzo[d]thiazol-2-yldisulfanyl)methyl)-6,6-dimethylbicyclo[3.1.1]heptan-3-ol] | 256 µg/mL (≈ 728 µM) | > 1020 µg/mL | 1020 µg/mL (≈ 2910 µM) | > 31 µM | – | 68 ± 6 µM | – | > 1020 µg/mL | – | – | most active | – | – | – | – | –
Cc1cc(C)nc(SSC[C@@H]2[C@@H](O)C[C@H]3C[C@@H]2C3(C)C)n1 [Compound 4b, (1S,2S,3S,5R)-2-(((4,6-dimethylpyrimidin-2-yl)disulfanyl)methyl)-6,6-dimethylbicyclo[3.1.1]heptan-3-ol] | > 1020 µg/mL | > 1020 µg/mL | > 1020 µg/mL | 12 ± 3 µM | – | 34 ± 2 µM | – | > 1020 µg/mL | – | – | most active | – | – | – | – | –
CC1(C)[C@H]2C[C@H](O)[C@@H](CSSc3ncccc3C(=O)O)[C@@H]1C2 [Compound 4d, 2-((((1S,2S,3S,5R)-3-hydroxy-6,6-dimethylbicyclo[3.1.1]heptan-2-yl)methyl)disulfanyl)nicotinic acid] | 512 µg/mL (≈ 1510 µM) | 64 µg/mL (≈ 189 µM) | 1020 µg/mL (≈ 3020 µM) | > 97 µM | – | 178 ± 11 µM | 11.1 µg/mL (≈ 32.8 µM) | 16 µg/mL (≈ 47.1 µM) | – | – | most active | – | – | – | – | active against yeast
OC(Cn1cncn1)(Cn1cncn1)c1ccc(F)cc1F [Fluconazole, reference compound] | – | – | – | – | – | – | – | 16 µg/mL (≈ 52.2 µM) | – | – | – | – | – | – | – | –
CC(N)C12CC3CC(CC(C3)C1)C2 (stereo not drawn) [Rimantadine, reference compound] | – | – | – | 57 ± 8 µM | – | 367 ± 28 µM | – | – | – | – | – | – | – | – | – | –
